Measurements published in BindingDB's records for doi:10.1021/jm011020u (Instituto De Quimica Medica (Csic), 2002).

Each molecule was assayed against cAMP-dependent protein kinase catalytic subunit alpha (Bos taurus, UniProt P00517) (assay: Kinase Inhibition Assay). Details: pH 7.5; 37 °C.
In the case of `Cn1sc(=O)n(Cc2ccccc2)c1=O` [4-Benzyl-2-methyl-1,2,4-thiadiazolidine-3,5-dione], the IC50 is reported as > 100 µM.

What follows are molecules tested against Protein kinase C beta type (Rattus norvegicus, UniProt P68403) (assay: PKC Inhibition Assay). Details: pH 7.5; 37 °C.
Sequence of Protein kinase C beta type (P68403 whole entry): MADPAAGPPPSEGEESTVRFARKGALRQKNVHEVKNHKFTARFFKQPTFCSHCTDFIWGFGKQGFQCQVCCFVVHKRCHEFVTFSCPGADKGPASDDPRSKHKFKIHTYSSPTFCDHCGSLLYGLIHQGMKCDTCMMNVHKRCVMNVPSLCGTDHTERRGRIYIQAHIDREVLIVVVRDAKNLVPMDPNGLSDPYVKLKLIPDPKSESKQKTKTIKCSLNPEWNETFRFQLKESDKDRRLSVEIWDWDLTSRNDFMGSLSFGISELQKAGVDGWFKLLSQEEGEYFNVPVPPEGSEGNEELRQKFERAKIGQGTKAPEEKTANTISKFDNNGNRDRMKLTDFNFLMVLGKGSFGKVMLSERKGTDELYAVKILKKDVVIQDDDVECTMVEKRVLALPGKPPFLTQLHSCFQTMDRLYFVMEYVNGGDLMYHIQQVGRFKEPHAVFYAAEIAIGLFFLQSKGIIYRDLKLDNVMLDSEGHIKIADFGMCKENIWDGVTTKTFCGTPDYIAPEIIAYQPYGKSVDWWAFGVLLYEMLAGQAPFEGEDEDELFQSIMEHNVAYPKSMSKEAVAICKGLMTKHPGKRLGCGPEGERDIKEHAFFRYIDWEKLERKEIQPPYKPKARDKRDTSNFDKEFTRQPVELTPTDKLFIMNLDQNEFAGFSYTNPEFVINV
Description: Kinase activities were assayed in buffers containing substrate, enzyme, and inhibitor at 37 °C in the presence of 10 uM ATP/ [gamma-32P] ATP. 32P incorporation was measured with a scintillation counter. The IC50 is the inhibitor concentration at which a 50% of enzyme inhibition occurs.
`Cn1sc(=O)n(Cc2ccccc2)c1=O` [4-Benzyl-2-methyl-1,2,4-thiadiazolidine-3,5-dione] was tested, and the IC50 was > 100 µM.

Each molecule was assayed against T1, Glycogen synthase kinase-3 beta [7-25] (Oryctolagus cuniculus, UniProt G1T8E2) (assay: GSK-3 Inhibition Assay). Details: 37 °C.
T1 construct: 7-25
Description: 32P incorporation was measured with a scintillation counter. The GSK-3 beta activity was expressed in picomoles of phosphate incorporated in GS-1 per 20 min or in percentage of maximal activity.
`O=c1sn(Cc2ccccc2)c(=S)n1Cc1ccccc1` [2,4-Dibenzyl-5-oxo-1,2,4-thiadiazolidine-3-thione] gave an IC50 of 10 µM. In the case of `CCn1sc(=O)n(CC)c1=S` [2,4-diethyl-3-thioxo-1,2,4-thiadiazolidin-5-one], the IC50 is reported as 20 µM. Work on `O=c1sn(-c2ccccc2)c(=S)n1-c1ccccc1` [2,4-diphenyl-5-oxo-1,2,4-thiadiazolidine-3-thione] yielded an IC50 of 8 µM. With `CCn1sc(=N)n(-c2ccccc2)c1=O` [2-Ethyl-3-oxo-4-phenyl-1,2,4-thiadiazolidin-5-imine] the IC50 was 65 µM. `Cn1sc(=O)n(-c2cccc3ccccc23)c1=O` [2-methyl-4-(1-naphthyl)-1,2,4-thiadiazolidine-3,5-dione] was tested, and the IC50 was 3 µM. `Cn1sc(=O)n(-c2ccc(C(F)(F)F)cc2)c1=O` [2-methyl-4-[4-(trifluoromethyl)phenyl]-1,2,4-thiadiazolidine-3,5-dione] gave an IC50 of 6 µM. `Cn1sc(=O)n(-c2ccc(Cl)cc2)c1=O` [4-(4-Chlorophenyl)-2-methyl-1,2,4-thiadiazolidine-3,5-dione] was tested, and the IC50 was 4 µM. With `Cn1sc(=O)n(-c2ccc(F)cc2)c1=O` [4-(4-Fluorophenyl)-2-methyl-1,2,4-thiadiazolidine-3,5-dione] the IC50 was 4 µM. For `Cc1ccc(-n2c(=O)sn(C)c2=O)cc1` [4-(4-Methylphenyl)-2-methyl-1,2,4-thiadiazolidine-3,5-dione], the IC50 was 5 µM. Molecule `CCn1sc(=O)n(Cc2ccccc2)c1=S` [4-Benzyl-2-ethyl-5-oxo-1,2,4-thiadiazolidine-3-thione] has an IC50 of 6 µM. Work on `CCn1c(=S)n(C)s/c1=N\c1cccnc1` [(5Z)-4-ethyl-2-methyl-5-(pyridin-3-ylimino)-1,2,4-thiadiazolidine-3-thione] yielded an IC50 of 10 µM. With `CCOC(=O)/N=c1\sn(C(=O)OCC)c(=S)n1-c1ccccc1` [ethyl (5Z)-5-[(ethoxycarbonyl)imino]-4-phenyl-3-sulfanylidene-1,2,4-thiadiazolidine-2-carboxylate] the IC50 was 100 µM. `CCNC(=O)/N=c1\sn(CC)c(=O)n1-c1ccccc1` [ethyl-(2-ethyl-3-oxo-4-phenyl-1,2,4-thiadiazolidin-5-ylidene)urea] was tested, and the IC50 was 75 µM.

Same assay, conditions: pH 7.5; 37 °C
For `CCn1sc(=O)n(Cc2ccccc2)c1=O`, the IC50 was 7 µM. Molecule `O=c1sn(Cc2ccccc2)c(=O)n1Cc1ccccc1` [2,4-Dibenzyl-1,2,4-thiadiazolidine-3,5-dione] has an IC50 of 10 µM. `CCn1sc(=O)n(CC)c1=O` [2,4-Diethyl-1,2,4-thiadiazolidine-3,5-dione] gave an IC50 of 25 µM. `CCn1c(=O)sn(C2CCCCC2)c1=O` [2-Cyclohexyl-4-ethyl-1,2,4-thiadiazolidine-3,5-dione] was tested, and the IC50 was 10 µM. In the case of `Cn1sc(=O)n(-c2ccccc2)c1=O` [2-methyl-4-phenyl-1,2,4-thiadiazolidine-3,5-dione], the IC50 is reported as 2 µM. `Cn1sc(=O)n(-c2ccccc2Br)c1=O` [4-(2-Bromophenyl)-2-methyl-1,2,4-thiadiazolidine-3,5-dione] gave an IC50 of 6 µM. For `Cn1sc(=O)n(-c2cccc(Br)c2)c1=O` [4-(3-Bromophenyl)-2-methyl-1,2,4-thiadiazolidine-3,5-dione], the IC50 was 4 µM. Work on `Cn1sc(=O)n(-c2ccc(Br)cc2)c1=O` [4-(4-Bromophenyl)-2-methyl-1,2,4-thiadiazolidine-3,5-dione] yielded an IC50 of 3 µM. With `Cn1sc(=O)n(C2CCCCC2)c1=O` [4-Cyclohexyl-2-methyl-1,2,4-thiadiazolidine-3,5-dione] the IC50 was > 100 µM. `CCn1c(=O)sn(C)c1=O` [4-Ethyl-2-methyl-1,2,4-thiadiazolidine-3,5-dione] showed an IC50 of 5 µM. With `CCCn1sc(=O)n(CC)c1=O` [4-Ethyl-2-propyl-1,2,4-thiadiazolidine-3,5-dione] the IC50 was 10 µM. With `CCn1c(=O)sn(C(C)C)c1=O` [4-ethyl-2-(propan-2-yl)-1,2,4-thiadiazolidine-3,5-dione] the IC50 was 35 µM.
